Experiments:
Prothrombin = Prothrombin (Homo sapiens, UniProt P00734); test: Compound was tested for inhibition of thrombin.; set-up: species or system Oryctolagus cuniculus
Coagulation factor X = Coagulation factor X (Homo sapiens, UniProt P00742); test: Compound was tested for inhibition of blood coagulation factor X
Serine protease 1 [1] = target: T1, Serine protease 1 (Homo sapiens, UniProt P07477); test: Compound was tested for inhibition of trypsin.
Serine protease 1 [2] = target: T1, Serine protease 1; test: Compound was tested for inhibition of trypsin

Coagulation factor X, sequence (P00742 41-179 limits assumed): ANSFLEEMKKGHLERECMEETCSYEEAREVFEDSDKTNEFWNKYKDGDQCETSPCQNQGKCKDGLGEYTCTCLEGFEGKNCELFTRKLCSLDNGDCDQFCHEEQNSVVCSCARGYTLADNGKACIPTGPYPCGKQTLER
Coagulation factor X, sequence (P00742 235-488 limits assumed): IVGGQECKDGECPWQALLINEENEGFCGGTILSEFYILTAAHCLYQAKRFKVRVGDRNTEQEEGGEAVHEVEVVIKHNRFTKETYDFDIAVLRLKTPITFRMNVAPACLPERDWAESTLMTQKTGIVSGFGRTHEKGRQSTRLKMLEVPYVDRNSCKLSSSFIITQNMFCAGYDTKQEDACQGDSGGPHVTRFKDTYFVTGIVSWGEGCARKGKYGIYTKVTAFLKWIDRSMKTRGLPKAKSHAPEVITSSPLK
T1 sequence (P07477 whole entry): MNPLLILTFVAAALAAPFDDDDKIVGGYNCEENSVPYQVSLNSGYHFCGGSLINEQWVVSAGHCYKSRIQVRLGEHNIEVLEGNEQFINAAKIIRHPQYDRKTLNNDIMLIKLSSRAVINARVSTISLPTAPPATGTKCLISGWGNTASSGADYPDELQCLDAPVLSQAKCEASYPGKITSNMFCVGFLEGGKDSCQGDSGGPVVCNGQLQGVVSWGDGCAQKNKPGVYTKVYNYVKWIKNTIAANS

Ki (Prothrombin) [µM] | Ki (Coagulation factor X) [µM] | Ki (Serine protease 1 [1]) [µM] | Ki (Serine protease 1 [2]) [µM] | Compound
9.3 | 0.8 | 0.12 | – | N=C(N)c1ccc(N2CCCCN(c3cccc(C(=N)N)c3)C2=O)cc1
> 21 | 7.5 | > 1.6 | – | N=C(N)c1ccc(N2CCCCN(C3CCN(Cc4ccccc4)CC3)C2=O)cc1
2 | 0.102 | 0.282 | – | N=C(N)c1cccc(N2CCCCN(C3CCN(Cc4ccccc4)CC3)C2=O)c1
– | – | – | 1.1 | CC(=N)N1CC[C@H](Oc2ccc(C(Cc3ccc4ccc(C(=N)N)cc4c3)C(=O)O)cc2)C1 (some centres undefined)
> 21 | 2.5 | – | – | N=C(N)c1cccc(N2CCCCN(C3CCN(C(=N)N)CC3)C2=O)c1
7.3 | 0.4 | – | – | N=C(N)c1cccc(N2CCCN(C3CCN(Cc4ccccc4)CC3)C2=O)c1
> 21 | 4.9 | > 1.2 | – | N=C(N)c1cccc(NC(=O)NC2CCN(Cc3ccccc3)CC2)c1
11 | 2.1 | – | – | N=C(N)c1cccc(N2CCN(C3CCN(Cc4ccccc4)CC3)C2=O)c1
